# Measurements as given in PubChem BioAssay (NCI).
#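 Compound exposure: 48 hours, 5 concentrations, 96-well plates. GI50 is the concentration that inhibits growth by half. TGI is the concentration that stops growth completely.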
# How the values were obtained:
# Test in all cases: NCI tumour cell line growth inhibition, 48 h
# 786-0 renal = test system: 786-0 renal
# A498 renal = test system: A498 renal
# A549 NSCLC = test system: A549 NSCLC
# ACHN renal = test system: ACHN renal
# BT-549 breast = test system: BT-549 breast
# CAKI-1 renal = test system: CAKI-1 renal
# CCRF-CEM leukemia = test system: CCRF-CEM leukemia
# COLO 205 colon = test system: COLO 205 colon
# DU-145 prostate = test system: DU-145 prostate
# EKVX NSCLC = test system: EKVX NSCLC
# HCC-2998 colon = test system: HCC-2998 colon
# HCT-116 colon = test system: HCT-116 colon
# HCT-15 colon = test system: HCT-15 colon
# HL-60(TB) leukemia = test system: HL-60(TB) leukemia
# HOP-62 NSCLC = test system: HOP-62 NSCLC
# HOP-92 NSCLC = test system: HOP-92 NSCLC
# HS 578T breast = test system: HS 578T breast
# HT29 colon = test system: HT29 colon
# IGROV1 ovarian = test system: IGROV1 ovarian
# K-562 leukemia = test system: K-562 leukemia
# KM12 colon = test system: KM12 colon
# LOX IMVI melanoma = test system: LOX IMVI melanoma
# M14 melanoma = test system: M14 melanoma
# MALME-3M melanoma = test system: MALME-3M melanoma
# MCF7 breast = test system: MCF7 breast
# MDA-MB-231 breast = test system: MDA-MB-231 breast
# MDA-MB-435 = test system: MDA-MB-435
# MDA-MB-468 breast = test system: MDA-MB-468 breast
# MOLT-4 leukemia = test system: MOLT-4 leukemia
# NCI-H226 lung = test system: NCI-H226 lung
# NCI-H23 lung = test system: NCI-H23 lung
# NCI-H460 lung = test system: NCI-H460 lung
# NCI-H522 lung = test system: NCI-H522 lung
# NCI/ADR-RES ovarian = test system: NCI/ADR-RES ovarian
# OVCAR-3 ovarian = test system: OVCAR-3 ovarian
# OVCAR-4 ovarian = test system: OVCAR-4 ovarian
# OVCAR-5 ovarian = test system: OVCAR-5 ovarian
# OVCAR-8 ovarian = test system: OVCAR-8 ovarian
# PC-3 prostate = test system: PC-3 prostate
# RPMI-8226 leukemia = test system: RPMI-8226 leukemia
# RXF 393 renal = test system: RXF 393 renal
# SF-268 CNS = test system: SF-268 CNS
# SF-295 CNS = test system: SF-295 CNS
# SF-539 CNS = test system: SF-539 CNS
# SK-MEL-2 melanoma = test system: SK-MEL-2 melanoma
# SK-MEL-28 melanoma = test system: SK-MEL-28 melanoma
# SK-MEL-5 melanoma = test system: SK-MEL-5 melanoma
# SK-OV-3 ovarian = test system: SK-OV-3 ovarian
# SN12C renal = test system: SN12C renal
# SNB-19 CNS = test system: SNB-19 CNS
# SNB-75 CNS = test system: SNB-75 CNS
# SR leukemia = test system: SR leukemia
# SW-620 colon = test system: SW-620 colon
# T-47D breast = test system: T-47D breast
# TK-10 renal = test system: TK-10 renal
# U251 CNS = test system: U251 CNS
# UACC-257 melanoma = test system: UACC-257 melanoma
# UACC-62 melanoma = test system: UACC-62 melanoma
# UO-31 renal = test system: UO-31 renal
smiles,measurement,setting,value
CN(C)c1ccnc(CNCCSC2(c3ccc(C(F)(F)F)cc3)c3ccccc3C=Cc3ccccc32)c1,GI50,786-0 renal,2.49 µM
same,TGI,786-0 renal,7.12 µM
same,GI50,A498 renal,11.9 µM
same,TGI,A498 renal,27.2 µM
same,GI50,A549 NSCLC,1.35 µM
same,TGI,A549 NSCLC,5.71 µM
same,GI50,ACHN renal,3.21 µM
same,TGI,ACHN renal,14.6 µM
same,GI50,BT-549 breast,3.19 µM
same,TGI,BT-549 breast,9.62 µM
same,GI50,CAKI-1 renal,4.37 µM
same,TGI,CAKI-1 renal,16.5 µM
same,GI50,CCRF-CEM leukemia,1.06 µM
same,TGI,CCRF-CEM leukemia,13.4 µM
same,GI50,COLO 205 colon,0.927 µM
same,TGI,COLO 205 colon,2.9 µM
same,GI50,DU-145 prostate,3.12 µM
same,TGI,DU-145 prostate,10.8 µM
same,GI50,EKVX NSCLC,1.77 µM
same,TGI,EKVX NSCLC,14.2 µM
same,GI50,HCC-2998 colon,0.91 µM
same,TGI,HCC-2998 colon,2.63 µM
same,GI50,HCT-116 colon,0.611 µM
same,TGI,HCT-116 colon,12.5 µM
same,GI50,HCT-15 colon,1.12 µM
same,TGI,HCT-15 colon,6.62 µM
same,GI50,HL-60(TB) leukemia,1.2 µM
same,TGI,HL-60(TB) leukemia,3.91 µM
same,GI50,HOP-62 NSCLC,2.69 µM
same,TGI,HOP-62 NSCLC,13.9 µM
same,GI50,HOP-92 NSCLC,2.17 µM
same,TGI,HOP-92 NSCLC,10.2 µM
same,GI50,HS 578T breast,1.57 µM
same,TGI,HS 578T breast,6.75 µM
same,GI50,HT29 colon,1.79 µM
same,TGI,HT29 colon,5.65 µM
same,GI50,IGROV1 ovarian,2.58 µM
same,TGI,IGROV1 ovarian,16 µM
same,GI50,K-562 leukemia,2.8 µM
same,TGI,K-562 leukemia,14 µM
same,GI50,KM12 colon,1.41 µM
same,TGI,KM12 colon,5.33 µM
same,GI50,LOX IMVI melanoma,2.2 µM
same,TGI,LOX IMVI melanoma,6.16 µM
same,GI50,M14 melanoma,0.598 µM
same,TGI,M14 melanoma,2.69 µM
same,GI50,MALME-3M melanoma,2.35 µM
same,TGI,MALME-3M melanoma,6.51 µM
same,GI50,MCF7 breast,0.853 µM
same,TGI,MCF7 breast,4.19 µM
same,GI50,MDA-MB-231 breast,1.11 µM
same,TGI,MDA-MB-231 breast,3.36 µM
same,GI50,MDA-MB-435,0.605 µM
same,TGI,MDA-MB-435,1.34 µM
same,GI50,MDA-MB-468 breast,0.74 µM
same,TGI,MDA-MB-468 breast,1.99 µM
same,GI50,MOLT-4 leukemia,1.12 µM
same,TGI,MOLT-4 leukemia,5.41 µM
same,GI50,NCI-H226 lung,5.45 µM
same,TGI,NCI-H226 lung,16.3 µM
same,GI50,NCI-H23 lung,2.8 µM
same,TGI,NCI-H23 lung,9.31 µM
same,GI50,NCI-H460 lung,1.09 µM
same,TGI,NCI-H460 lung,3.86 µM
same,GI50,NCI-H522 lung,0.771 µM
same,TGI,NCI-H522 lung,2.49 µM
same,GI50,NCI/ADR-RES ovarian,2 µM
same,TGI,NCI/ADR-RES ovarian,4.39 µM
same,GI50,OVCAR-3 ovarian,1.73 µM
same,TGI,OVCAR-3 ovarian,5.93 µM
same,GI50,OVCAR-4 ovarian,5.33 µM
same,TGI,OVCAR-4 ovarian,16.3 µM
same,GI50,OVCAR-5 ovarian,2.74 µM
same,TGI,OVCAR-5 ovarian,11.2 µM
same,GI50,OVCAR-8 ovarian,1.18 µM
same,TGI,OVCAR-8 ovarian,4.73 µM
same,GI50,PC-3 prostate,1.49 µM
same,TGI,PC-3 prostate,11.3 µM
same,GI50,RPMI-8226 leukemia,1.03 µM
same,TGI,RPMI-8226 leukemia,4.41 µM
same,GI50,RXF 393 renal,1.97 µM
same,TGI,RXF 393 renal,7.54 µM
same,GI50,SF-268 CNS,3.67 µM
same,TGI,SF-268 CNS,16.6 µM
same,GI50,SF-295 CNS,1.6 µM
same,TGI,SF-295 CNS,6.56 µM
same,GI50,SF-539 CNS,1.12 µM
same,TGI,SF-539 CNS,3.18 µM
same,GI50,SK-MEL-2 melanoma,1.2 µM
same,TGI,SK-MEL-2 melanoma,3.72 µM
same,GI50,SK-MEL-28 melanoma,4.34 µM
same,TGI,SK-MEL-28 melanoma,9.09 µM
same,GI50,SK-MEL-5 melanoma,1.96 µM
same,TGI,SK-MEL-5 melanoma,5.43 µM
same,GI50,SK-OV-3 ovarian,4.38 µM
same,TGI,SK-OV-3 ovarian,13.7 µM
same,GI50,SN12C renal,2.16 µM
same,TGI,SN12C renal,8.08 µM
same,GI50,SNB-19 CNS,3.53 µM
same,TGI,SNB-19 CNS,17.3 µM
same,GI50,SNB-75 CNS,1.76 µM
same,TGI,SNB-75 CNS,6.61 µM
same,GI50,SR leukemia,0.723 µM
same,TGI,SR leukemia,4.15 µM
same,GI50,SW-620 colon,1 µM
same,TGI,SW-620 colon,4.45 µM
same,GI50,T-47D breast,4.63 µM
same,TGI,T-47D breast,15.7 µM
same,GI50,TK-10 renal,7.1 µM
same,TGI,TK-10 renal,21.3 µM
same,GI50,U251 CNS,1.11 µM
same,TGI,U251 CNS,4.03 µM
same,GI50,UACC-257 melanoma,4.33 µM
same,TGI,UACC-257 melanoma,11.2 µM
same,GI50,UACC-62 melanoma,3.41 µM
same,TGI,UACC-62 melanoma,8.81 µM
same,GI50,UO-31 renal,3.91 µM
same,TGI,UO-31 renal,16.2 µM
